Columns and labels:
[1] = tested on: BRCA2_KD HeLa silenciX cells; assay: Clonogenic assay, BRCA2_KD HeLa; assay type: cell-based; details: vs control HeLa cells
Protocol: (§1) Clonogenic assay: In the clonogenic assay (colony formation assays), 32 cells/cm2 were seeded in 6-well plates and left at 37°C in a 5% CO2 atmosphere. Cisplatin (5µM) and/or FEN1i (10µM) and/or Importazole (5 µM, Selleckem, S8446 ) were added at the indicated concentrations and the plates were left at 37 °C in a 5% CO 2 atmosphere for 14 days. Later, the plates were washed with PBS, fixed and stained with a crystal violet, acetic acid and methanol solution and colonies were counted.
Nuclear and cytoplasmic extract: Cells were harvest by trypsinization, washed with PBS and centrifuged at 1000×g for 5min. […] Protein level were then quantified prior to use in western blots.
BCA protein quantification: Protein quantification was done using the Pierce BCA kit assay by Thermo Fisher Scientific. […] The plate was incubated at 37°C during 30 min in the dark and the absorbance was measured by FLUOstar OPTIMA, UK/ Infinite® F50 (UK) microplate reader at 590 nm. […]
Western Blot Analysis: Cells were harvested and lysed in RIPA buffer (R0278, Sigma) with the addition of protease cocktail inhibitor (P8348, Sigma), phosphatase inhibitor cocktail 2 (P5726, Sigma) and phosphatase inhibitor cocktail 3 (P0044, Sigma) and stored at - 20°C. Protein was quantified using BCA Protein Assay kit (23225, Thermo Fisher). […]

A2780cis cells = assay: Neutral COMET assay, A2780cis; assay type: cell-based, human; details: combination with cisplatin vs cisplatin or FEN1i monotherapy
Protocol: (§2) (1:200, ab26343). Infrared dye-labelled secondary antibodies (Li-Cor) [IRDye 800CW Donkey Anti-Rabbit IgG and IRDye 680CW Donkey Anti-Mouse IgG] were incubated at a dilution of 1:10000 for 1 h. Membranes were scanned with a LiCor Odyssey machine (700 and 800 nm) to determine protein expression. ß-Tubulin or ß-actin was used as a loading controls for the whole cell lysates. GADPH and YYI were used as loading controls to cytoplasmic and nuclear fractions, respectively. First incubation was with FEN1 antibody and then imaged. This was followed by incubation with loading control and then imaged for analysis. Bar charts show means of optical density (O.D.) ± S.D and all data is representative of at least three independent experiments. qRT-PCR analysis of FEN1 gene expre ssion: RNA was extracted using the RNeasy Mini Kit (74104, Qiagen) and quantified using a Nanodrop 2000c (Thermo Fisher Scientific). cDNA synthesis was performed using the RT2 First Strand Kit (330404, Qiagen). Real time PCR was carried out on an Applied Biosystems […] FAST cycler.
(§3) Neutral COMET assay: 1.0x10^5 cells per well were seeded in 6 well tissue culture plates and incubated at 37°C and 5% CO2 overnight. […] Fifty comets were scored per sample using Comet Assay III/IV image analysis software (Perceptive Instruments, Bury St Edmonds, UK). […]

FEN1 = tested on: FEN1; set-up: method as in PMID 21062821; details: read-out: IC50 for FEN1 inhibition; cited from earlier work
PEO1 cells = assay: Cell cycle progression, PEO1; assay type: cell-based, human; details: FEN1i monotherapy
Protocol: with ice cold PBS and fixed in 70% ethanol for 1h at -20°C. After removal of the fixative solution by centrifugation, cells were stained with 2 µg/ml of phospho-Histone (γH2AX) Ser139 (16202A, Millipore, UK) to detect DSBs.
Cell cycle progression: Cells were treated with 20 µg/ml RNase A (12091021, Invitrogen) and then 10 µg/ml Propidium Iodide (P4170, Sigma Aldrich) was added to determine the cell cycle distribution. The samples were analysed on a Beckman-Coulter FC500 flow cytometer using a 488nm laser for excitation and emission data for PI collected using a 620nm bandpass filter (FL3) and a 525nm bandpass filter (FL1) for FITC-anti-phospho-Histone H2A.X. […]
Graphical representation and statistical analysis was performed in GraphPad Prism 7 (GraphPad, La Jolla, USA).
3D Spheroid assays: A2780_control and A2780 FEN1_ KO as well as A2780cis_control and A2780cis FEN1_ KO cells were seeded at 4500 cells/cm2 density in ultra-low attachment 6-well plates (174932, Thermo Fisher Scientific) and cultured in 3D Tumorsphere Medium (C28070, PromoCell, UK) at 37°C in a 5% CO2 atmosphere. Cells were keep in culture for 7-10 days, toping up with fresh medium every two days until spheroids structures were formed.

[2] = tested on: FEN1 mRNA in A2780cis cells; assay: qRT-PCR FEN1 mRNA expression, A2780cis; assay type: cell-based, human; details: 24 h exposure to cisplatin
Protocol: as §2, §3

A2780 cells = assay: Clonogenic assay, A2780; assay type: cell-based, human
Protocol: as §1, with “counted. […]” for “counted.”

## Cc1csc2c1c(=O)n(O)c(=O)n2-c1ccccc1 [PTPD, 3-hydroxy-5-methyl-1-phenylthieno [2,3 d]pyrimidine-2,4(1H,3H)-dione]
[1]
  sensitivity to FEN1 inhibitor: sensitive to FEN1i compared to control HeLa cells
A2780cis cells
  DNA breaks (neutral COMET): substantially increased DNA breaks
FEN1
  IC50: 22 nM
PEO1 cells
  cell cycle effect: S-phase and G2/M-phase cell cycle arrest

## N.N.[Cl][Pt][Cl] [cisplatin]
[2]
  FEN1 mRNA expression after cisplatin: increased by day 1 and persisted at least until day 4
A2780 cells
  cisplatin sensitivity: cisplatin-sensitive

From paper PMC8070745, “FEN1 Blockade for Platinum Chemo-Sensitization and Synthetic Lethality in Epithelial Ovarian Cancers” (Cancers, 2021)
